The values that follow come from patent US5376658A, “5,10-methylene-tetrahydrofolate as a modulator of a chemotherapeutic agent” (priority 1993, dated 1994).

The test system of one data set is CCRF-CEM cells. The data set can be described thus: Intracellular CH2 FH4 and FH4 levels in CCRF-CEM cells after exposure to 10 μM folate. The data set is classed as cell-based, human. The settings on record: for Intracellular FH4: control 3.08. An excerpt:
In further support of the hypothesis that objectives of CH2 FH4 administration are increases in FH4 and FH4 /CH2 FH4 values, are the results of a cell culture study, shown in Table VI, comparing the relative effectiveness of different folate forms on assayed intracellular levels of the two folates.

Data set [1] deals with thymidylate synthase (TS). The data set can be described thus: TS level in serial tumor biopsies, patient three (skin metastasis from gastric carcinoma), [6-3H]FdUMP ligand-binding assay. As to conditions: for TS, % of Baseline / Thymidylate synthase (TS): 30 mg IV; for Thymidylate synthase (TS): baseline 1.31. The format is in vivo, human. The protocol: The assays were performed by the methods described in Spears et al., Adv. […] The serial biopsies were done following single dose administration of CH2 FH4.
The assays were also performed on the day of CH2 FH4 administration.

For data set [2], the system named is thymidylate synthase (TS). The data set can be described thus: TS level in serial tumor biopsies, patient one (rectal adenocarcinoma), [6-3H]FdUMP ligand-binding assay. The format is in vivo, human. The protocol: CH2 FH4 was formulated, assayed, and administered to 2 patients who had previously been treated with 5-FU. The assays were performed by the methods described in Spears et al., Adv. Exp. Med. Biol. 244:98-104 (1988). In the data shown, the TS inhibition profiles that resulted from CH2 FH4 administration were not due to concurrent 5-FU dosing. The most recent exposure to 5-FU in these cases was slightly greater than a week prior to the study date, with the patients eligible, however, from the standpoint of toxicity evaluation to receive the weekly dose of 5-FU. Thus, residual FdUMP levels from previous exposure, below the detectable limits for assay, were expected to be present (See spears et al. Mol. Pharmacol. 27:302-07 (1985)). The serial biopsies were done following single dose administration of CH2 FH4.
The formulation of CH2 FH4 was as described in Example 2, and was performed on the day of CH2 FH4 administration. The assays were also performed on the day of CH2 FH4 administration.
^a On Week #1 the CH2 FH4 was formulated at pH 2.0,
DEAEpurified; On Week #2 the preparation was pH 9.0, with 6 mM (final
concentration) CH2 O added, no DEAE step used.
^c By [6^3 H]FdUMP ligandbinding assay (Spears et al., Cancer Res
In patient one, a person with locally unresectable advanced rectal adenocarcinoma, the TS pharmacodynamic tumor tissue analyses were done twice, nine days apart. Following study, the person continued to receive intermittent bolus 5-FU. […] There were modifications of the CH2 FH4 formulation between the 2 pharmacodynamic studies (See Table III). In the first study week, the pH was not adjusted up from 2.0, after DEAE column isolation of the Sigma (6R,S)-CH2 FH4. Thus, some of this folate may also have been 5,10-methenyl-tetrahydrofolate. In the second study week, the pH was adjusted up to 9.0, and no DEAE step was used (with therefore 6 mM formaldehyde being present in the 40-cc volume for injection).

For data set [3] the following is noted: cited from earlier work.
The next data set has as its target T1, L. casei TS-[3H]FdUMP (Lacticaseibacillus casei, UniProt P00469).
T1 sequence (P00469 1-316): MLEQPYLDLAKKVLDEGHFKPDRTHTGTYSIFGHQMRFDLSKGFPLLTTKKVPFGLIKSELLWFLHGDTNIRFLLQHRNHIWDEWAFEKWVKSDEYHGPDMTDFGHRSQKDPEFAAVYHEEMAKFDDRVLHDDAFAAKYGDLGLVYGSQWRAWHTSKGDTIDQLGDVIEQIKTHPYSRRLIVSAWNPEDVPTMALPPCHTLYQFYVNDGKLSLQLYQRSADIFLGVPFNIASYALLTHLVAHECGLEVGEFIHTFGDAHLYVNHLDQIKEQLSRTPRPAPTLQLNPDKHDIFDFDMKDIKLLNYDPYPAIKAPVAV
The data set can be described thus: TS-[3H]FdUMP-folate ternary complex binding assay. The protocol: The CH2 FH4 was prepared as the racemic (6R, S) material from (6R, S)-FH4 and excess formaldehyde, and DEAE-column isolation as described in FIG. 1. This preparation was essentially free of free formaldehyde based on colorimetric assay of bulk material (Nash, Biochem. J. 55:416-21 (1953)).
At all concentrations (total assays volume 150 μl ), excess formaldeyde was required to obtain maximal binding (which was still only 19.3% of stoichiometric binding). A notable effect was the increasing need for formaldehyde addition with increasing dilution, to obtain maximal CH2 FH4 assay recovery.
TS[^3 H]FdUMP-folate ternary complex formation without formaldehyde
addition was 38.5% of the value for the natural (6R)CH2 FH4 wit
6 mM formaldehyde added. (About 1 pmole of parent CH2 FH4 was
^b Only 11.8 ± 7.9% of maximal L. casei TS[^3 H]FdUMP-folate
ternary complex formation (using 6 mM formaldehyde concentration) which i
The unnatural diastereomer, (6S)-CH2 FH4 prepared by DEAE-column,potassium bicarbonate separation from the natural diasteromer as described in Example 8, was dissolved in 0.2M Tris-HCl buffer, pH 7.0, containing sodium ascorbate (100 mM) and 2-mercaptoethanol. This preparation was from the same lot of material described in Example 8. As noted in the footnote of Table VII, in the absence of supplemental formaldehyde, the yield of dextrancharcoal isolated complex was 38.5% of the value for the natural (6R)-CH2 FH4 (with added 6 mM formaldehyde).

The subject of data set [4] is CH2 FH4 and FH4 in breast cancer biopsies. The data set can be described thus: CH2 FH4 and FH4 levels in breast cancer biopsies during L-serine infusion after high-dose (6R,S)-leucovorin. The data set is classed as in vivo, human. As to conditions: patient two. Details: CH2 FH4 / FH4: unit not given here. The procedure: As noted previously (see pages 5-6) and mentioned in C. P. Spears, et al., Proc. Am. Soc. Clin. Oncol. 8:69 (1989), the inventors have used pharmacologic intervention to convert intracellular FH4 to CH2 FH4 in patients receiving high-dose reduced folate therapy combined with weekly i.v. bolus 5-FU, 450 mg/sq. m. The method used was administration of i.v. L-serine, 15.0 grams, over 1 hour after the end of overnight high-dose (6R,S)-leucovorin i.v. infusion.
In contrast to the data shown in Tables II and III, the inventors were able to also assay for intratumoral FH4 in addition to CH2 FH4 (this latter is also referred to as "FBC" in those Tables or Folate-Binding Capacity), at time points during this pharmacologic forcing of metabolism of FH4 to CH2 FH4 through the enzyme, serine hydroxymethyltransferase. This enzyme splits a carbon of L-serine to generate formaldehyde in the presence of FH4.
^a Minutes after initiation of 15.0 gram LSerine i.v. 60min infusion,
after end of overnight (6R,S)leucovorin highdose i.v. infusion.
^b Assays performed as described (C.P. Spears et al., Adv. Exp. Med.

In data set [5] the test system is transplanted colon cancer. The data set can be described thus: Comparison of natural and unnatural CH2 FH4 diastereomers in rats bearing transplanted colon cancer. The format is in vivo, rat. As to conditions: 15 mg/kg, Day 17, no fluorinated pyrimidine. An excerpt: A study has been completed, for comparison of natural (6R)-CH2 FH4 and unnatural (6S)-CH2 FH4 diastereomers. The preparation of the two forms was done as described by Kisliuk, et al., Cancer Treat. Rep. 61:647-50 (1977), using DEAE-cellulose column chromatography, with elution by potassium bicarbonate buffer. The two separate major peaks were individually pooled, lyophilized to dryness, and used for injection. As in the original detailed description of the method of Kisliuk, et al. (Biochem. 20:929-934), the methylene content was substoichiometric with tetrahydrofolate (FH4). That is, methylene units were present in apparently lower concentration than FH4 concentrations.
Rats bearing the transplanted colon cancer, as described in Example 4 and in Carlsson, et al., Anticancer. Res. 10:813-816, 1991, were treated with either the (6R)-CH2 FH4 or the (6S)-CH2 FH4, formulated and injected according to the methods described in Table IV, except that the injected amounts were 15 mg/kg per dose.
At Day 17, the rats were sacrificed, and the tumors were measured for both volume end weight. Volumes were calculated by the equation for an ellipsoid in revolution, V=(4/3)πab^2 were a=the long diameter/2 and b=the perpendicular short diameter/2.
The filled circles are the weights and volumes of tumors of rats treated with the unnatural (6S)-CH2 FH4 diastereomer (mostly (6R)-FH4 material in dilute solution and blood); the triangles are results for the natural (6R)-CH2 FH4 (mostly (6S)-FH4); and the open circles, control non-treated tumors. It is emphasized here that no fluorinated pyrimidine was used, just the folate injections.

Setting [6] is: 0 min (start of L-serine, after overnight leucovorin).

Consider `Nc1nc2c(c(=O)[nH]1)N=C(CNc1ccc(C(=O)N[C@@H](CCC(=O)O)C(=O)O)cc1)CN2` [DHF, Dihydrofolate], for which the “Intracellular FH4” value in the data set on CCRF-CEM cells (16-hr exposure) is on record as 7.10 nmole/10^9 Cells.

Turning to `CN1c2c(nc(N)[nH]c2=O)NC[C@H]1CNc1ccc(C(=O)N[C@@H](CCC(=O)O)C(=O)O)cc1` [(6R,S)-MTHF, 5-methyl-(6R, S)-tetrahydrofolate], the “Intracellular FH4” value with CCRF-CEM cells (16-hr exposure) is 10.55 nmole/10^9 Cells.

`Nc1nc2c(c(=O)[nH]1)N1CN(c3ccc(C(=O)N[C@@H](CCC(=O)O)C(=O)O)cc3)CC1CN2` (stereo partly shown) [CH2 FH4, 5,10-methylene-tetrahydrofolate]: the “TS, % of Baseline” value is recorded as 19.8% in data set [1] (10 min); 42.7% in data set [1] (20 min); 75.6% in data set [1] (40 min); 112.2% in data set [1] (60 min); 212.4% in data set [2] (Week #1, 35 mg IV, 10 min); 43.7% in data set [2] (Week #1, 35 mg IV, 20 min). In addition, the “TS, % of Baseline” value in data set [2] (Week #1, 35 mg IV, 30 min) turned out to be 114.1%; in data set [2] (Week #1, 35 mg IV, 24 hr) it was 122.2%; in data set [2] (Week #2, 50 mg IV, 10 min), 181.7%; in data set [2] (Week #2, 50 mg IV, 20 min), 104.8%; in data set [2] (Week #2, 50 mg IV, 30 min) it was 35.8%; in data set [2] (Week #2, 50 mg IV, 40 min), 61.3%. Further, the “Thymidylate synthase (TS)” value in data set [1] (biopsy at 10 min) amounted to 0.26 pmol/g; in data set [1] (biopsy at 20 min), 0.56 pmol/g; in data set [1] (biopsy at 40 min) it was 0.99 pmol/g; in data set [1] (biopsy at 60 min), 1.47 pmol/g; in data set [2] (Week #1, 35 mg IV, 10 min, baseline 5.77) it was 6.28 pmol/g; in data set [2] (Week #1, 35 mg IV, 20 min, baseline 5.77) it was 2.26 pmol/g. Further, the “Thymidylate synthase (TS)” value in data set [2] (Week #1, 35 mg IV, 30 min, baseline 5.77) came to 5.90 pmol/g; in data set [2] (Week #1, 35 mg IV, 24 hr, baseline 5.77), 6.32 pmol/g; in data set [2] (Week #2, 50 mg IV, 10 min, baseline 5.64), 10.25 pmol/g; in data set [2] (Week #2, 50 mg IV, 20 min, baseline 5.64), 5.91 pmol/g; in data set [2] (Week #2, 50 mg IV, 30 min, baseline 5.64), 2.02 pmol/g; in data set [2] (Week #2, 50 mg IV, 40 min, baseline 5.64), 3.46 pmol/g. Besides, in data set [1] (10 min (first biopsy)), the “TS inhibition / decrease over baseline value” was 80.2%. In addition, the TS inhibition in data set [1] (20 min) is recorded as 57.3%. In addition, the “storage stability in solution” value in data set [3] (column-isolated, under argon at -80° C.) is “up to a year without decomposition”. Further, the “stability in the presence of oxygen” value in data set [3] (solutions and powder, oxygen, catalyzed by light, acid, base, heavy metals) is reported as “unstable”. In addition, at L. casei TS-[3H]FdUMP (0.2M Tris pH 7.4, excess formaldehyde (6 mM)), the “maximal binding, % of stoichiometric binding” value came out at 19.3%.

Consider `Nc1nc2c(c(=O)[nH]1)N(C=O)[C@H](CNc1ccc(C(=O)N[C@@H](CCC(=O)O)C(=O)O)cc1)CN2` [LV, (6R,S)-5-formyl-tetrahydrofolate], for which the “Ratio of FH4/CH2 FH4” value in data set [4] (0 min) is on record as 12.2. Besides, in data set [4] (setting [6]), the “CH2 FH4” value was 0.194 and the FH4 is recorded as 2.370.

With `Nc1nc2c(c(=O)[nH]1)N1CN(c3ccc(C(=O)N[C@@H](CCC(=O)O)C(=O)O)cc3)C[C@H]1CN2` [(6R)-CH2 FH4], the “Tumor volume ± SE” value in data set [5] (control 7.81) is given as 12.58. Besides, the “Tumor weight ± SE” value in data set [5] (control 7.93) is recorded as 9.11. For the same compound, the “% of maximal L. casei TS-[3H]FdUMP-folate ternary complex formation” value on L. casei TS-[3H]FdUMP (maximal = using 6 mM formaldehyde) is on record as 11.8 ± 7.9%. Besides, the “Intracellular CH2 FH4” value with CCRF-CEM cells (90 min exposure, control 0.04) is on record as 0.19 nmole/10^9 Cells. Further, in the data set with CCRF-CEM cells (90 min exposure), the “Intracellular FH4” value was 8.81 nmole/10^9 Cells.

As to `Nc1nc2c(c(=O)[nH]1)N(C=O)[C@@H](CNc1ccc(C(=O)N[C@@H](CCC(=O)O)C(=O)O)cc1)CN2` [(6S)-LV], in the data set with CCRF-CEM cells (16-hr exposure), the “Intracellular FH4” value is recorded as 10.64 nmole/10^9 Cells.
